{"source": "paper PMC10847306", "about": "“The antibacterial activity and mechanism of a novel peptide MR-22 against multidrug-resistant Escherichia coli” (Frontiers in Cellular and Infection Microbiology, 2024)", "key": {"E. coli ATCC 25922 [1]": {"system": "E. coli ATCC 25922", "experiment": "microbe, parasite or virus in culture", "conditions": "ATCC 25922, 18 h", "protocol": "(§1) The MIC were determined by a micro dilution method in Mueller-Hinton broth (MHB) ([Cuenca-Estrella et al., 2010]). The final concentration of bacterial suspension in MHB were 1.0×10^6 CFU/mL. The final concentration of MR-22 ranged 1 ~ 256 μg/mL in 96 wells plate broth at 37°C for 16~18 h. Imipenem was employed as positive control, bacterial grown without treatment as negative control and MHB as blank control. MIC determination was performed by reading the OD600 nm. Take 100 μL samples in holes that have never seen bacterial growth and place them on the LB agar board. The concentration of MR-22 with no bacterial growth was defined as the MBC."}, "[2]": {"system": "E. coli clinical strain E03", "experiment": "microbe, parasite or virus in culture", "conditions": "clinical strain E03, 18 h", "outline": "(§2)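 Bacteria were diluted in Mueller-Hinton broth to 1.0×10^6 CFU/mL and exposed to 1 ~ 256 μg/mL compound (final) at 37°C for 16~18 h. Growth was then read at OD600 nm, and wells lacking growth were subcultured onto LB agar to define the MBC.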"}, "[3]": {"system": "E. coli clinical strain E05", "experiment": "microbe, parasite or virus in culture", "conditions": "clinical strain E05, 18 h", "outline": "as §2"}, "[4]": {"system": "E. coli clinical strain E12", "experiment": "microbe, parasite or virus in culture", "conditions": "clinical strain E12, 18 h", "outline": "as §2"}, "[5]": {"system": "E. coli clinical strain E15", "experiment": "microbe, parasite or virus in culture", "conditions": "clinical strain E15, 18 h", "outline": "as §2"}, "[6]": {"system": "E. coli clinical strain E16", "experiment": "microbe, parasite or virus in culture", "conditions": "clinical strain E16, 18 h", "outline": "as §2"}, "[7]": {"system": "E. coli clinical strain E19", "experiment": "microbe, parasite or virus in culture", "conditions": "clinical strain E19, 18 h", "outline": "as §2"}, "[8]": {"system": "E. coli clinical strain E22", "experiment": "microbe, parasite or virus in culture", "conditions": "clinical strain E22, 18 h", "outline": "as §2"}, "[9]": {"system": "E. coli ATCC 25922 and clinically drug resistant isolated strains", "experiment": "microbe, parasite or virus in culture", "type": "cell-based, Escherichia coli", "conditions": "18 h", "protocol": "as §1"}, "E. coli E19 [10]": {"system": "E. coli E19", "type": "cell-based, Escherichia coli", "protocol": "In order to study the activity of MR-22 in high-salt concentration, mice serum, different temperatures or trypsin, MIC once again conducted tests as described above.\nE. coli ATCC 25922 and E19 were incubated in different concentrations MR-22 in MHB with 150 mM NaCl, 2 mM CaCl2, 10% mice serum and 10% FBS in 96-well plates and cultured at 37°C for 16 h. The resulting solutions were subjected to MIC testing to evaluate any alterations in the antimicrobial activity of MR-22.\nTo assess the thermal stability of MR-22, it was subjected to various temperatures (40°C, 60°C, 80°C, and 100°C) for 30 min. Then, reducing to room temperature, and the MIC was subsequently determined.\n(§3) MR-22 was mixed with a solution containing 1 μg/ml of trypsin and incubated at 37°C for 2 to 12h. Then, trypsin inactivation was carried out at 60°C for 30 min. The antimicrobial activity of the samples was tested to assess the activity of MR-22 and its analogs after the treatment by trypsin. The untreated MR-22 served as the control group for comparative analysis."}, "E. coli ATCC 25922 [11]": {"system": "E. coli ATCC 25922", "type": "cell-based, Escherichia coli", "conditions": "1 μg/ml trypsin, 37°C, mean ± SD", "protocol": "as §3"}, "E. coli E19 [12]": {"system": "E. coli E19", "type": "cell-based, Escherichia coli", "conditions": "1 μg/ml trypsin, 37°C, mean ± SD", "protocol": "as §3"}, "E. coli E19 [13]": {"system": "E. coli E19", "experiment": "Mice peritonitis model", "type": "in vivo", "conditions": "C57BL/6J mice", "protocol": "This study utilized female C57BL/6J mice aged 6-8 weeks, weight range of 18-20 g, which were obtained from SPF Biotechnology Co., Ltd (Beijing, China). The animals were housed under maintained on a standard 12 h light/12 h dark cycle. All animal experiments were conducted in accordance with the Ethical Principles in Animal Research adopted by Guizhou Medical University and were approved by the Institutional Animal Care and Use Committee.\nTo evaluate the in vivo efficacy of MR-22, we used a mice peritonitis model. A total of 60 mice were divided into three groups: treatment group (10 mg/kg MR-22, intraperitoneal injection), positive control group (10 mg/kg imipenem, intraperitoneal injection), and normal control group (PBS, intraperitoneal injection). Peritonitis was induced by intraperitoneal injection of 1.0 × 10^8 CFU bacterial inoculum in 0.2 mL of E. coli E19. Survival rates were recorded every 12 h for 7 days.\nTo study the protective effects of MR-22, 10 mice in each group were sacrificed, and peritoneal lavage fluid, blood, liver, and kidney were collected 36 h after administration. The number of colonies in peritoneal lavage fluid and blood were determined by culturing on LB agar, while the tissues were fixed in 4% paraformaldehyde and subjected to hematoxylin and eosin staining to study the morphology."}}, "note": "Read-outs that look alike come from different tables or passages of the source."}
{"substance": "H-MAKRRKKAKKKAKKAKKRRRRR-NH2 [MR-22]", "values": [{"measurement": "MBC", "setting": "E. coli ATCC 25922 [1]", "result": 16, "unit": "µg/mL"}, {"measurement": "MIC", "setting": "E. coli ATCC 25922 [1]", "result": 16, "unit": "µg/mL"}, {"measurement": "MBC", "setting": "[2]", "result": 16, "unit": "µg/mL"}, {"measurement": "MIC", "setting": "[2]", "result": 16, "unit": "µg/mL"}, {"measurement": "MBC", "setting": "[3]", "result": 16, "unit": "µg/mL"}, {"measurement": "MIC", "setting": "[3]", "result": 16, "unit": "µg/mL"}, {"measurement": "MBC", "setting": "[4]", "result": 16, "unit": "µg/mL"}, {"measurement": "MIC", "setting": "[4]", "result": 16, "unit": "µg/mL"}, {"measurement": "MBC", "setting": "[5]", "result": 4, "unit": "µg/mL"}, {"measurement": "MIC", "setting": "[5]", "result": 4, "unit": "µg/mL"}, {"measurement": "MBC", "setting": "[6]", "result": 16, "unit": "µg/mL"}, {"measurement": "MIC", "setting": "[6]", "result": 16, "unit": "µg/mL"}, {"measurement": "MBC", "setting": "[7]", "result": 32, "unit": "µg/mL"}, {"measurement": "MIC", "setting": "[7]", "result": 32, "unit": "µg/mL"}, {"measurement": "MBC", "setting": "[8]", "result": 16, "unit": "µg/mL"}, {"measurement": "MIC", "setting": "[8]", "result": 16, "unit": "µg/mL"}, {"measurement": "MIC over all strains tested", "setting": "[9]", "result": "4 ~ 32 μg/mL"}, {"measurement": "MIC, 150 μM Na^+", "setting": "E. coli E19 [10]; E19, 16 h", "result": 256, "unit": "µg/mL"}, {"measurement": "MIC, 10% FBS", "setting": "E. coli E19 [10]; E19, 16 h", "result": 32, "unit": "µg/mL"}, {"measurement": "MIC, 10% Serum", "setting": "E. coli E19 [10]; E19, 16 h", "result": 128, "unit": "µg/mL"}, {"measurement": "MIC, 40°C 30 min", "setting": "E. coli E19 [10]; E19, 16 h", "result": 32, "unit": "µg/mL"}, {"measurement": "MIC, 60°C 30 min", "setting": "E. coli E19 [10]; E19, 16 h", "result": 32, "unit": "µg/mL"}, {"measurement": "MIC, 80°C 30 min", "setting": "E. coli E19 [10]; E19, 16 h", "result": 32, "unit": "µg/mL"}, {"measurement": "MIC, 100°C 30 min", "setting": "E. coli E19 [10]; E19, 16 h", "result": 32, "unit": "µg/mL"}, {"measurement": "MIC, Control", "setting": "E. coli E19 [10]; E19, 16 h", "result": 32, "unit": "µg/mL"}, {"measurement": "MIC, 1 μg/mL Trypsin", "setting": "E. coli E19 [10]; E. coli E19, MR-22 incubated with 1 μg/ml trypsin at 37°C (2 to 12 h), trypsin inactivated 60°C 30 min", "result": ">256", "unit": "µg/mL"}, {"measurement": "Rate of inhibition after incubation with trypsin", "setting": "E. coli ATCC 25922 [11]; 4 h", "result": "22.32 ± 1.71", "unit": "%"}, {"measurement": "Rate of inhibition after incubation with trypsin", "setting": "E. coli ATCC 25922 [11]; 8 h", "result": "3.40 ± 0.26", "unit": "%"}, {"measurement": "Rate of inhibition after incubation with trypsin", "setting": "E. coli ATCC 25922 [11]; 10 h", "result": "1.85 ± 0.18", "unit": "%"}, {"measurement": "Rate of inhibition after incubation with trypsin", "setting": "E. coli ATCC 25922 [11]; 12 h", "result": "1.33 ± 0.22", "unit": "%"}, {"measurement": "Rate of inhibition after incubation with trypsin", "setting": "E. coli E19 [12]; 4 h", "result": "17.74 ± 2.88", "unit": "%"}, {"measurement": "Rate of inhibition after incubation with trypsin", "setting": "E. coli E19 [12]; 8 h", "result": "5.41 ± 1.20", "unit": "%"}, {"measurement": "Rate of inhibition after incubation with trypsin", "setting": "E. coli E19 [12]; 10 h", "result": "4.49 ± 1.54", "unit": "%"}, {"measurement": "Rate of inhibition after incubation with trypsin", "setting": "E. coli E19 [12]; 12 h", "result": "0.64 ± 0.46", "unit": "%"}, {"measurement": "bacterial content in the peritoneal lavage fluid", "setting": "E. coli E19 [13]; E19 peritonitis, 10 mg/kg 1 h after infection, after 36 h, ten mice per group, control group 8.73 ± 0.38", "result": "7.23 ± 0.36", "unit": "Log10CFU/mL"}, {"measurement": "72-h survival rate", "setting": "E. coli E19 [13]; peritonitis by 1.0 × 10^8 CFU E. coli E19 i.p., 10 mg/kg intraperitoneal injection, infected group 0%", "result": 40, "unit": "%"}]}
